Measurements: patent US20200017490A1, “Novel Mesoionic Insecticidal Compound” (Nippon Kayaku Kabushiki Kaisha, priority 2016, published 2020)

How the values were obtained:
Experiment in all cases: whole plant or invertebrate
Type in all cases: in vivo
[1] = test system: Brown Planthopper (Nilaparvata lugens); conditions: foliar, 120 h, rice seedling foliage dipping, third instar larvae, 5 days after the treatment, 25° C.
Method: Biological Test Example 3: Test (Foliage Dipping) for Controlling Brown Planthopper (Nilaparvata lugens)
Ten sampled rice seedlings were dipped in the chemical solution of the test compounds diluted with water to 200 ppm in an amount of 20 mL and air-dried. After air-drying, the rice seedlings held with urethane in a glass cylinder having an inner diameter of 4.5 cm and a length of 14 cm were set up in a plastic cup containing 40 mL of water. Larvae of brown planthoppers in the third instar larva were released in the glass cylinder. The cylinder was covered with a lid of medicine paper and kept in a chamber at a constant temperature of 25° C. for rearing.

[2] = test system: Southern Yellow thrips (Thrips palmi); conditions: 72 h, foliar spraying on cucumber leaf, first instar larvae, 3 days after the treatment, 25° C.
Method: Biological Test Example 5: Test (Foliar Spraying) for Controlling Southern Yellow thrips (Thrips palmi)
A cucumber leaf cut to a diameter of 1.5 cm was placed on cotton wool moistened with water. The diluent of the test compounds diluted with water to 200 ppm in an amount of 2 mL was sprayed onto the cucumber leaves with a spray tower. After air-drying, 5 larvae of southern yellow thrips in the first instar larva were released there and placed with cotton wool in a plastic cup, which was covered with a lid and kept in a chamber at a constant temperature of 25° C. for rearing.

[3] = test system: Diamondback Moth (Plutella xylostella); conditions: foliar, 120 h, cabbage leaf dipping, third instar larvae, 5 days after the treatment, 25° C.
Method: Biological Test Example 2: Test (Foliage Dipping) for Controlling Diamondback Moth (Plutella xylostella)
A cabbage leaf cut to a diameter of 5.0 cm was dipped in the diluent of the test compounds diluted with water to 200 ppm in an amount of 20 mL and air-dried. After air-drying, the cabbage leaf was placed in a plastic cup, and 10 larvae of diamondback moths in the third instar larva were released there. The cup was covered with a lid and kept in a chamber at a constant temperature of 25° C. for rearing.

[4] = test system: Brown Planthopper (Nilaparvata lugens); conditions: rice seedling root dipping, third instar larvae released after 2 days, 5 days after the treatment, 25° C.
Method: Biological Test Example 4: Test (Root Dipping) for Controlling Brown Planthopper (Nilaparvata lugens)
Ten sampled rice seedlings held with urethane in a glass cylinder having an inner diameter of 4.5 cm and a length of 14 cm were set up in a plastic cup containing 40 mL of chemical solution diluted with water to 0.8 ppm. After 2 days, 10 larvae of brown planthoppers in the third instar larva were released in the glass cylinder. The glass cylinder was covered with a lid of medicine paper and kept in a chamber at a constant temperature of 25° C. for rearing.

[5] = test system: Cotton Aphid (Aphis gossypii); conditions: 120 h, foliar spraying on cucumber leaf, cotton aphid offspring, 5 days after the treatment, 25° C.
Method: Biological Test Example 1: Test (Foliar Spraying) for Controlling Cotton Aphid (Aphis gossypii)
A cucumber leaf cut to a diameter of 3.5 cm was placed on cotton wool moistened with water. Two adult cotton aphids were released there for offspring for 24 hours and the adult insects were then removed. The diluent of the test compounds diluted with water to 200 ppm in an amount of 2 mL was sprayed onto the cucumber leaves with a spray tower. After air-drying, the sample with cotton wool was placed in a plastic cup, which was covered with a lid and kept in a chamber at a constant temperature of 25° C. for rearing.

Row | Compound | mortality at 200 ppm [1] [%] | other results
1 | CC(C)=CCON=CCC[n+]1c([O-])c(CC=C(C)C)c(=O)n2ccccc21 [Compound K-7] | ≥ 80 | 
2 | CC(C)(C)[S+]([O-])N=CCC[n+]1c([O-])c(-c2cccc(C(F)(F)F)c2)c(=O)n2ccccc21 (stereo not shown) [Compound K-3] | ≥ 80 | 
3 | CCOC(C)ON=CCC[n+]1c([O-])c(CC=C(C)C)c(=O)n2ccccc21 (stereo not shown) [Compound K-8] | ≥ 80 | 
4 | O=c1c(-c2ccccc2)c([O-])[n+](CCC=NOC2COCCO2)c2ccccn12 (stereo not shown) [Compound K-10] | ≥ 80 | 
5 | O=c1c(-c2cccc(C(F)(F)F)c2)c([O-])[n+](CCC=NOc2ccc(Cl)nc2)c2ccccn12 [Compound K-2] |  | mortality at 200 ppm [2]: ≥ 80%; mortality at 200 ppm [3]: ≥ 80%; mortality at 0.8 ppm [4]: ≥ 80%; mortality at 200 ppm [5]: ≥ 80%
6 | COc1cccc(-c2c(O)[n+](CCC=N[N+](C)(C)C)c3ccccn3c2=O)c1 [Compound K-1] | ≥ 80 | 
7 | C=CCc1c([O-])[n+](CCC=NOC(C)OCC)c2ccccn2c1=O (stereo not shown) [Compound K-9] | ≥ 80 | 
